The nature of data set [1]: Peptide-lipid interaction and insertion, lipid monolayer. Format: binding, E. coli. Conditions: LPS; for Speed of insertion: initial surface pressure 30+/-0.5 mN/m; for Critical pressure of insertion πc: peptide 1 µg/mL. As for the experimental part:
(§1) Peptide–lipid interaction was measured using a lipid monolayer formed at the air:water interface with total lipid extracts and pure lipids. Total lipids were extracted from overnight cultures of MRSA or human erythrocytes using the Folch extraction procedure[14],[40]. Extracted total lipids were dried, re-solubilised in chloroform:methanol (2:1, v/v) and stored at −20 °C under nitrogen. Pure prokaryotic and eukaryotic lipids used were: cardiolipin, POPC (1-palmitoyl-2-oleoyl-glycero-3-phosphocholine), POPE (1-palmitoyl-2-oleoyl-sn-glycero-3-phosphoethanolamine) and POPG (1-palmitoyl-2-oleoyl-sn-glycero-3-phospho-(1’-rac-glycerol) (Avanti Polar Lipid). LTA (Lipoteichoic acid from S. aureus) and LPS (lipopolysaccharide from E. coli) (Invitrogen, UK) were also tested. Pure lipids were reconstituted in chloroform:methanol (2:1 v/v) at 1 mg/ml and stored at −20 °C under nitrogen. For peptide–lipid interaction assay, lipid monolayers at the air:water interface were formed by spreading total lipid extract or pure lipids at the surface of 800 µl of sterile PBS using a 50 µl Hamilton’s syringe. Lipids were added until the surface pressure reached the desired value. After 5–10 min of incubation allowing the evaporation of the solvent and stabilisation of the initial surface pressure, 8 µl of HG2 or HG4 diluted in sterile PBS at 100 µg/ml were injected into the 800 µl sub-phase of PBS under the lipid monolayer (pH 7.4, volume 800 µl) using a 10 µl Hamilton’s syringe giving a final concentration of peptide of 1 µg/ml, as preliminary experiments had shown that this concentration was optimal. The variation of the surface pressure caused by peptide insertion was then continuously monitored using a fully automated microtensiometer (µTROUGH SX, Kibron Inc, Finland) until it reached equilibrium (maximal surface pressure increase is usually obtained after 15–25 min). To reflect physiological situations, the initial surface pressure was fixed at 30 ± 0.5 mN/m in some experiments as this value corresponds to a lipid packing density theoretically equivalent to that of the outer leaflet of the eukaryotic and prokaryotic cell membrane. In other experiments, the critical pressure of insertion of HG2 or HG4 in the total lipid extracts and pure lipids was measured as follows[14],[56]. Briefly, in these experiments, the initial pressure of the lipid monolayer was set up at different values (between 10 and 30 mN/m) and the variation of pressure caused by the injection of the peptide was measured. […] All experiments were carried out in a controlled atmosphere at 20 ± 1 °C and data were analyzed using the Firmware 2.5 programme (Kibron Inc.). The accuracy of the system under our experimental conditions was determined to be ±0.25 mN/m for surface pressure measurements.

Data set [2] relates to Sal. typhimurium. Briefly: microbe, parasite or virus in culture. The data set is classed as cell-based, Salmonella enterica serovar Typhimurium. The following applies: Sal. typhimurium; Supplementary Table 5. As for the experimental part: (§2) To determine the antimicrobial activity of the new antimicrobial peptides, HG2 and HG4, their minimum inhibitory concentrations (MICs) were determined by broth microdilution method[51] in cation adjusted Mueller Hinton broth (MHB) following the International Organisation for Standardisation (ISO) 20776-1 standard for MIC testing using a final bacterial inoculum of 5 × 10^5 CFU/ml[52]. […] The peptides dissolved in sterile distilled water were added to bacteria culture and incubated overnight at appropriate conditions. The MICs of the peptides and comparator antibiotics were recorded after 18–24 h. The minimum bactericidal concentrations (MBCs) were also determined and were taken as the lowest concentration of the antimicrobial that prevented the growth of bacterial cells after the subculture of cells (from MIC treatment) onto antibiotic-free media.

Data set [3] in a line: Peptide-lipid interaction and insertion, lipid monolayer. The data set is classed as binding, human. The following applies: Erythrocyte extract; initial surface pressure 30+/-0.5 mN/m. As for the experimental part: Peptide–lipid interaction was measured using a lipid monolayer formed at the air:water interface with total lipid extracts and pure lipids. Total lipids were extracted from overnight cultures of MRSA or human erythrocytes using the Folch extraction procedure[14],[40]. Extracted total lipids were dried, re-solubilised in chloroform:methanol (2:1, v/v) and stored at −20 °C under nitrogen. […] The variation of the surface pressure caused by peptide insertion was then continuously monitored using a fully automated microtensiometer (µTROUGH SX, Kibron Inc, Finland) until it reached equilibrium (maximal surface pressure increase is usually obtained after 15–25 min). […] In other experiments, the critical pressure of insertion of HG2 or HG4 in the total lipid extracts and pure lipids was measured as follows[14],[56]. Briefly, in these experiments, the initial pressure of the lipid monolayer was set up at different values (between 10 and 30 mN/m) and the variation of pressure caused by the injection of the peptide was measured. […] All experiments were carried out in a controlled atmosphere at 20 ± 1 °C and data were analyzed using the Firmware 2.5 programme (Kibron Inc.). The accuracy of the system under our experimental conditions was determined to be ±0.25 mN/m for surface pressure measurements.

For data set [4], the system named is EMRA-15. Briefly: microbe, parasite or virus in culture. Format: cell-based, Staphylococcus aureus. The gist of the method: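 MICs are determined by microdilution in cation-adjusted MHB under ISO 20776-1, using an inoculum of 5 × 10^5 CFU/ml and reading after 18–24 h. MBCs correspond to the lowest concentration where subcultured cells fail to grow without antibiotic.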

Data set [5] has as its system MRSA USA300 cells. Briefly: ATP depletion assay. Format: cell-based, Staphylococcus aureus. Conditions: P = 0.018 (HG2) and 0.003 (HG4). The method, then: Adenosine triphosphate (ATP) drives many cellular and metabolic processes and can be used to ascertain the integrity of cells. […] Briefly, in a clear 96-well plate, samples and ATP standard provided with the kit were added in a reaction mix containing ATP assay buffer, ATP Probe and Converter and Developer mix. The reaction mix was incubated in the dark at room temperature for 30 min. Absorbance (570 nm0 was then measured in a microplate spectrophotometer. The background ATP levels obtained from samples and ATP standards were autocorrected by subtracting ATP levels from blank treatments. The amount of ATP in unknown samples was determined from the ATP standard curve and calculated using the formula in the instruction manual. All measurements were performed in triplicates.

For data set [6], the system named is Ent. faecalis. Briefly: microbe, parasite or virus in culture. The following applies: Ent. faecalis; Supplementary Table 5. Format: cell-based, Enterococcus faecalis. As for the experimental part:
as §2

Data set [7] is described as follows: Peptide-lipid interaction and insertion, lipid monolayer. Format: binding. The following applies: for Speed of insertion: initial surface pressure 30+/-0.5 mN/m; for Critical pressure of insertion πc: peptide 1 µg/mL. As for the experimental part:
as §1

Data set [8] deals with B. cereus. Nature of the data set: microbe, parasite or virus in culture. The data set is classed as cell-based, Bacillus cereus. The method, then:
as §2

In data set [9] the test system is eLUCidate Raw 264.7 NF-kB reporter cell line.
In data set [10] the test system is MRSA USA300 cells. Briefly: Time-kill kinetics. The data set is classed as cell-based, Staphylococcus aureus. The following applies: 3x MIC; for reduction in viable cells (time-kill): within the first 10 min, logarithmic-phase MRSA USA300; for time to complete cell death: no recovery observed after 24 h. The method, then: The bactericidal activity of HG2, HG4 and comparator antimicrobial compounds was assessed using exponential-phase cultures[14] of MRSA USA300 grown in MHB (1 × 10^6-8 CFU/ml). […] Samples were taken at different time points, serially diluted and inoculated onto MH agar plates using the spread plate technique. After overnight incubation, the colony-forming units per millilitre of cell culture (CFU/ml) was calculated. Experiments were performed in quadruplicates.

The test system of data set [11] is P. aeruginosa (CF) LES400. Nature of the data set: microbe, parasite or virus in culture. The data set is classed as cell-based, Pseudomonas aeruginosa. The following applies: CF) LES400. As for the experimental part:
as §2

For data set [12], the system named is P. aeruginosa (CF) C3719. Briefly: microbe, parasite or virus in culture. Format: cell-based, Pseudomonas aeruginosa. Conditions: CF) C3719. The method, then:
as §2

Data set [13] has as its system P. aeruginosa (CF) AMT0060. Briefly: microbe, parasite or virus in culture. Format: cell-based, Pseudomonas aeruginosa. Conditions: CF) AMT0060. The method, then:
as §2

Data set [14] relates to P. aeruginosa PA01. Nature of the data set: microbe, parasite or virus in culture. Format: cell-based, Pseudomonas aeruginosa. As for the experimental part:
as §2

For data set [15], the system named is Sal. typhimurium SL1344. Briefly: microbe, parasite or virus in culture. Format: cell-based, Salmonella enterica serovar Typhimurium. The method, then:
as §2

Data set [16] deals with Ent. faecalis JH2-2. Nature of the data set: microbe, parasite or virus in culture. The data set is classed as cell-based, Enterococcus faecalis. As for the experimental part: as §2

SMILES strings stand for the structures. Converted amounts (≈) assume the structure as drawn. Bridge positions count the residues as written; N and C are the ends. Peptide text beside a SMILES is read from it.

Turning to `CC[C@H](C)[C@H](NC(=O)[C@H](CC(C)C)NC(=O)[C@H](CC(C)C)NC(=O)[C@H](C)NC(=O)CNC(=O)CNC(=O)[C@@H](NC(=O)[C@@H](NC(=O)[C@H](CC(C)C)NC(=O)[C@H](C)NC(=O)[C@H](CC(C)C)NC(=O)CNC(=O)[C@H](CC(C)C)NC(=O)[C@@H](N)C(C)C)[C@@H](C)CC)C(C)C)C(=O)N[C@@H](CCCCN)C(=O)N[C@@H](CCCCN)C(=O)N[C@@H](CCCCN)C(=O)N[C@@H](CCC(N)=O)C(=O)N[C@@H](C)C(=O)N[C@@H](CCCCN)C(=O)N[C@@H](CO)C(N)=O` [HG4] (H-VLGLALIVGGALLIKKKQAKS-NH2; N-terminus and C-terminus assumed), the Speed of insertion is reported as 0.31 mN/m/10 sec in data set [1]; 1.20 mN/m/10 sec in data set [3]; 2.44 mN/m/10 sec in data set [7] (Cardiolipin); 0.50 mN/m/10 sec in [7] (PC); 0.20 mN/m/10 sec in data set [7] (PE); 2.48 mN/m/10 sec in data set [7] (PG). Also, the “Critical pressure of insertion πc” value in [1] came out at 34.08 mN/m; in [7] (Cardiolipin), 46.49 mN/m; in data set [7] (PC), 28.8 mN/m; in data set [7] (PE) it was 33.9 mN/m; in [7] (PG) it was 47.55 mN/m. The “Minimum inhibitory Concentrations MICs” value is 512 µg/mL in [2], 32 µg/mL in [4] and 128 µg/mL in data set [6]. For the same compound, the “effect on ATP concentration” value in data set [5] is “decrease in ATP concentration”. In addition, the MIC in data set [8] is 512 mg/L (≈ 242 µM); in [11] it was 128 mg/L (≈ 60.4 µM); in data set [12] it was 128 mg/L (≈ 60.4 µM); in data set [13], 256 mg/L (≈ 121 µM); in data set [14] it was greater than 512 mg/L. The “toxicity against reporter cell line (resazurin assay)” value in data set [9] is “no toxicity”. For the same compound, the “reduction in viable cells (time-kill)” value in [10] was greater than 6 log10 CFU/ml. For the same compound, the “time to complete cell death” value in [10] is no more than 10 min.
As for `CC[C@H](C)[C@H](NC(=O)[C@H](CC(C)C)NC(=O)[C@H](CC(C)C)NC(=O)[C@H](CC(C)C)NC(=O)[C@H](CCCCN)NC(=O)[C@H](CCCCN)NC(=O)[C@@H](N)CCSC)C(=O)N[C@@H](CC(C)C)C(=O)N[C@@H](Cc1ccccc1)C(=O)N[C@H]1CSSC[C@@H](C(=O)N[C@@H](CCCCN)C(=O)N[C@@H](CCCCN)C(=O)N[C@@H](C)C(=O)N2CCC[C@H]2C(N)=O)NC(=O)CNC(=O)[C@H](C)NC(=O)[C@H](CC(C)C)NC(=O)[C@H](C)NC(=O)[C@H](CC(C)C)NC(=O)[C@H](C)NC(=O)[C@H](CC(C)C)NC1=O` [HG2] (H-MKKLLLILFCLALALAGCKKAP-NH2; disulfide 10-18; N-terminus assumed), the Speed of insertion in data set [1] is 0.43 mN/m/10 sec; in [3] it was 1.13 mN/m/10 sec; in data set [7] (Cardiolipin), 4.74 mN/m/10 sec; in [7] (PC), 8.58 mN/m/10 sec; in data set [7] (PE), 1.89 mN/m/10 sec; in [7] (PG), 3.70 mN/m/10 sec. Also, the “Critical pressure of insertion πc” value was 36.03 mN/m in data set [1]; 41.30 mN/m in data set [7] (Cardiolipin); 62.79 mN/m in data set [7] (PC); 39.49 mN/m in data set [7] (PE); 51.19 mN/m in data set [7] (PG). Moreover, the MIC worked out at 256 mg/L (≈ 109 µM) in data set [15]; 256 mg/L (≈ 109 µM) in data set [16]; 256 mg/L (≈ 109 µM) in [8]; 64 mg/L (≈ 27.2 µM) in [11]; 64 mg/L (≈ 27.2 µM) in data set [12]; 256 mg/L (≈ 109 µM) in data set [13]. The same compound came in with an MIC in data set [14] greater than 512 mg/L. The “effect on ATP concentration” value in data set [5] is “decrease in ATP concentration”. In data set [9], the “toxicity against reporter cell line (resazurin assay)” value is listed as “no toxicity”. For the same compound, the “reduction in viable cells (time-kill)” value in [10] is listed as greater than 3 log10 CFU/ml. Moreover, the “time to complete cell death” value in data set [10] is on record as no more than 10 min.

The values are drawn from paper PMC9283466, “In silico identification of two peptides with antibacterial activity against multidrug-resistant Staphylococcus aureus” (NPJ Biofilms and Microbiomes, 2022).
